Measured values: paper PMC5909127, “Optimization of a “bump-and-hole” approach to allele-selective BET bromodomain inhibition” (Chemical Science, 2018)
Where two headings read alike, the source gives them in different places.

How the values were obtained:
[1] = Intrinsic Clearance; conditions: mouse liver microsomes
[2] = tested on: L/V BET bromodomains (BD1 and BD2 of BRD2, BRD3 and BRD4); assay: competitive AlphaLISA (Bio-JQ1 displacement); assay type: binding, human; conditions: for AlphaLISA pIC50 ± SD Δ: L/V minus WT; for AlphaLISA pIC50 ± SD L/V: mean and SD of all somatic bromodomains, active enantiomer concentration
[3] = Plasma Half-life; conditions: BALB/c, mouse, pH 7.4
[4] = biological target: BRD2 BD1 L/V (Homo sapiens, UniProt P25440, L110V); assay: competitive AlphaLISA; assay type: binding
[5] = biological target: BRD4 BD2 WT (Homo sapiens, UniProt O60885); assay: competitive AlphaLISA; assay type: binding
[6] = biological target: BRDT BD2 WT (Homo sapiens, UniProt Q58F21); assay: competitive AlphaLISA; assay type: binding
[7] = biological target: BRD4 BD1 L/V (Homo sapiens, UniProt O60885, L94V); assay: competitive AlphaLISA; assay type: binding; conditions: AlphaLISA pIC50 Value BRD4 BD1 L/V
[8] = biological target: BRD3 BD2 WT (Homo sapiens, UniProt Q15059); assay: competitive AlphaLISA; assay type: binding
[9] = biological target: BRD2 BD1 WT (Homo sapiens, UniProt P25440); assay: competitive AlphaLISA; assay type: binding
[10] = biological target: BRD3 BD1 WT (Homo sapiens, UniProt Q15059); assay: competitive AlphaLISA; assay type: binding
[11] = biological target: BRD3 BD1 L/V (Homo sapiens, UniProt Q15059, L70V); assay: competitive AlphaLISA; assay type: binding
[12] = biological target: BRD4 BD1 WT (Homo sapiens, UniProt O60885); assay: competitive AlphaLISA; assay type: binding; conditions: AlphaLISA pIC50 Value BRD4 BD1 WT
[13] = biological target: BRD4 BD2 L/V (Homo sapiens, UniProt O60885, L387V); assay: competitive AlphaLISA; assay type: binding
[14] = biological target: WT BET bromodomains (BD1 and BD2 of BRD2, BRD3 and BRD4); assay: competitive AlphaLISA (Bio-JQ1 displacement); assay type: binding, human; conditions: mean and SD of all somatic bromodomains; active enantiomer concentration
[15] = biological target: BRD3 BD2 L/V (Homo sapiens, UniProt Q15059, L345V); assay: competitive AlphaLISA; assay type: binding
[16] = biological target: BRDT BD1 WT (Homo sapiens, UniProt Q58F21); assay: competitive AlphaLISA; assay type: binding
[17] = biological target: BRD2 BD2 WT (Homo sapiens, UniProt P25440); assay: competitive AlphaLISA; assay type: binding
[18] = biological target: BRDT BD2 L/V (Homo sapiens, UniProt Q58F21, L306V); assay: competitive AlphaLISA; assay type: binding
[19] = biological target: BRD2 BD2 L/V (Homo sapiens, UniProt P25440, L383V); assay: competitive AlphaLISA; assay type: binding
[20] = in vitro; conditions: PAMPA, pH 7.4
[21] = biological target: BRDT BD1 L/V (Homo sapiens, UniProt Q58F21, L63V); assay: competitive AlphaLISA; assay type: binding

Sequence of BRD2 BD2 WT (P25440 344-455): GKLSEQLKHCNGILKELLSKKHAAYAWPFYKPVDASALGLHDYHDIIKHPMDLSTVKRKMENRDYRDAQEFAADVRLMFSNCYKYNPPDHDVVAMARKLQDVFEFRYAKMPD
Sequence of BRD2 BD1 WT (P25440 71-176): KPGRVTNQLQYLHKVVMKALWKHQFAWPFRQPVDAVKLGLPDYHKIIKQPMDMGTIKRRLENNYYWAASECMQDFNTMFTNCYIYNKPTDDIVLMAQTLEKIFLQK
Sequence of BRD3 BD1 L/V (Q15059 24-144 L70V limits assumed): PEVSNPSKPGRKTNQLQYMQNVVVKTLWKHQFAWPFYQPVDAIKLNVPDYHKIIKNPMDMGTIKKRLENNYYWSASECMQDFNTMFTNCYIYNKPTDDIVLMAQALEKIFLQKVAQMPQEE
Sequence of BRD2 BD1 L/V (P25440 71-176 L110V limits assumed): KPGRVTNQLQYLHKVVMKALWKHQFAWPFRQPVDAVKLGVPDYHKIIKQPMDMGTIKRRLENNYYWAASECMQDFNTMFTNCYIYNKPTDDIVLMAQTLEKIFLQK
Sequence of BRD3 BD2 WT (Q15059 306-416): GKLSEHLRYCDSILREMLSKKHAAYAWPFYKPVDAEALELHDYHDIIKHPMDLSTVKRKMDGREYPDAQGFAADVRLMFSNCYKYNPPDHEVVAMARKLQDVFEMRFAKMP
Sequence of BRD2 BD2 L/V (P25440 344-455 L383V): as the sequence (P25440 344-455) above, with L40V counted along it
Sequence of BRD3 BD1 WT (Q15059 24-144): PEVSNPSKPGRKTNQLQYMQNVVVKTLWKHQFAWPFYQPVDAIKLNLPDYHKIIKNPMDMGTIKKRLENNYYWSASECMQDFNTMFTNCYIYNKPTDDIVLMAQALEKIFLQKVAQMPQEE
Sequence of BRD3 BD2 L/V (Q15059 306-416 L345V limits assumed): as the sequence (Q15059 306-416) above, with L40V counted along it

| SMILES | CL int [1] [ml min^–1 g^–1] | AlphaLISA pIC50 ± SD Δ [2] | half-life at 50 µM [3] [h] | IC50 [4] [µM] | IC50 [5] [µM] | IC50 [6] [µM] | IC50 [7] [µM] | IC50 [8] [µM] | AlphaLISA pIC50 ± SD L/V [2] | IC50 [9] [µM] | IC50 [10] [µM] | IC50 [11] [µM] | IC50 [12] [µM] | AlphaLISA pIC50 ± SD WT [14] | IC50 [15] [µM] | IC50 [16] [µM] | IC50 [17] [µM] | IC50 [18] [µM] | IC50 [19] [µM] | IC50 [21] [µM] | further results |
| --- | --- | --- | --- | --- | --- | --- | --- | --- | --- | --- | --- | --- | --- | --- | --- | --- | --- | --- | --- | --- | --- |
| Cc1sc2c(c1C)C(c1ccc(Cl)cc1)=N[C@@H](CC(=O)OC(C)(C)C)c1nnc(C)n1-2 [(+)JQ1, reference compound] | 7.5 | –0.1 ± 0.1 | > 3 |  |  |  |  |  |  |  |  |  |  |  |  |  |  |  |  |  |  |
| CC[C@@H](C(=O)OC(C)(C)C)[C@@H]1N=C(c2ccc(Cl)cc2)c2ccc(OC)cc2-n2c(C)nnc21 [Compound 25] | 31.0 | 0.4 ± 0.2 | > 3 | 10 | 25.1 | 39.8 | 7.94 | 25.1 | 5.0 ± 0.2 | 39.8 | 20 | 5.01 | 15.8 | 4.6 ± 0.1 | 10 | 25.1 | 20 |  |  |  | IC50 [13]: 20 µM |
| COC(=O)CC1N=C(c2ccc(Cl)cc2)c2cc(OC)ccc2-n2c(C)nnc21 (stereo not shown) [Compound 1] | <0.5 |  | 0.9 |  |  |  |  |  |  | 0.316 | 0.126 | 0.0631 |  |  | 0.501 | 0.501 | 0.316 | 1 | 0.316 |  | Papp [20]: 14.9 ×10⁻⁶ cm/s |
| CCNC(=O)[C@H](CC)[C@@H]1N=C(c2ccc(Cl)cc2)c2ccc(OC)cc2-n2c(C)nnc21 (relative stereo) [Compound 22] | 2.1 | >1.2 | > 3 | 6.31 | > 100 | > 100 | 7.94 | > 100 | 5.2 ± 0.2 | > 100 | 63.1 | 3.16 | 63.1 | <4.0 | 3.98 | > 100 | > 100 | 20 | 7.94 | 20 | Papp [20]: 5.9 ×10⁻⁶ cm/s |
| C=CC[C@@H](C(=O)OC(C)(C)C)[C@@H]1N=C(c2ccc(Cl)cc2)c2ccc(OC)cc2-n2c(C)nnc21 [Compound 26] | 39.4 | 0.5 ± 0.1 | > 3 | 2.51 | 10 | 10 | 1.58 | 5.01 | 5.8 ± 0.2 | 7.94 | 3.16 | 1.26 | 6.31 | 5.2 ± 0.2 | 1.26 | 10 | 6.31 | 2.51 | 1.58 | 3.98 | IC50 [13]: 3.16 µM |
| CCN(CC)C(=O)[C@H](C)[C@@H]1N=C(c2ccc(Cl)cc2)c2cc(OC)ccc2-n2c(C)nnc21 (relative stereo) [Compound 19] | >50 | 1.2 ± 0.2 | > 3 | 1 | 25.1 | 25.1 | 1.26 |  | 6.1 ± 0.2 |  | 5.01 | 0.398 |  | 4.9 ± 0.2 | 0.501 | 39.8 | 25.1 | 3.16 | 1 | 3.98 | IC50 [13]: 1.26 µM |
| COC(=O)[C@H](C)[C@@H]1N=C(c2ccc(Cl)cc2)c2cc(OC)ccc2-n2c(C)nnc21 (relative stereo) [Compound 3] | 0.7 | 1.2 ± 0.2 | > 3 | 0.0631 |  | 1.26 |  |  |  | 2 | 0.251 | 0.0316 |  | 6.2 ± 0.3 | 0.0316 | 2 | 1 | 0.0794 |  |  | Papp [20]: 18.5 ×10⁻⁶ cm/s |
| C=CC[C@@H](C(=O)OC(C)(C)C)[C@@H]1N=C(c2ccc(Cl)cc2)c2cc(OC)ccc2-n2c(C)nnc21 [Compound 24] | 39.1 | 0.9 ± 0.2 | > 3 | 1.26 | 3.98 | 10 |  | 6.31 | 6.2 ± 0.2 | 5.01 | 3.98 | 0.316 | 5.01 | 5.3 ± 0.1 | 0.794 | 7.94 | 7.94 | 1.58 | 0.501 | 2 | IC50 [13]: 1 µM |
| CC[C@@H](C(=O)N(CC)CC)[C@@H]1N=C(c2ccc(Cl)cc2)c2cc(OC)ccc2-n2c(C)nnc21 (relative stereo) [Compound 20] | >50 | 1.2 ± 0.2 | > 3 | 2 | 31.6 | 39.8 | 1.26 | 25.1 | 5.8 ± 0.2 | 31.6 | 20 | 0.501 | 25.1 | 4.6 ± 0.1 | 1.58 | 39.8 | 15.8 | 6.31 | 1.58 | 6.31 | IC50 [13]: 3.16 µM |
| COC(=O)CC1N=C(c2ccc(Cl)cc2)c2ccc(OC)cc2-n2c(C)nnc21 (stereo not shown) [Compound 2] | 1.7 | 0.1 ± 0.1 | 1.12 | 1.58 | 2.51 | 3.98 | 1 | 2.51 | 5.9 ± 0.2 | 2 |  | 0.501 | 1 | 5.8 ± 0.2 | 1 | 2 | 2.51 | 3.16 | 2 | 1.58 | IC50 [13]: 2.51 µM |
| CCC[C@@H](C(=O)OC)[C@@H]1N=C(c2ccc(Cl)cc2)c2cc(OC)ccc2-n2c(C)nnc21 (relative stereo) [Compound 6] | 5.2 | 0.6 ± 0.2 | > 3 | 10 | 63.1 |  | 7.94 | 20 | 5.0 ± 0.1 | 31.6 | 20 | 6.31 | 25.1 | 4.5 ± 0.2 | 10 | 31.6 | > 100 |  | 10 | 25.1 | selectivity (L/V over WT, AlphaLISA) [2]: less than 10 fold |
| CCNC(=O)C[C@@H]1N=C(c2ccc(Cl)cc2)c2cc(OC)ccc2-n2c(C)nnc21 [I-BET762, reference compound] |  |  |  |  |  |  |  |  |  |  |  |  |  |  |  |  |  |  |  |  | IC50 ([21]; read-out: AlphaLISA pIC50 Value BRDT BD1 L/V (converted)): 1 µM |
| CC[C@@H](C(=O)OC(C)(C)C)[C@@H]1N=C(c2ccc(Cl)cc2)c2cc(OC)ccc2-n2c(C)nnc21 [Compound 23] | 30.7 | 0.7 ± 0.1 | > 3 | 1.58 | 6.31 | 6.31 | 0.794 | 5.01 | 6.0 ± 0.2 | 5.01 | 2.51 | 0.398 | 5.01 | 5.3 ± 0.1 | 0.794 | 6.31 | 5.01 | 2.51 | 1 | 2.51 | IC50 [13]: 1.58 µM |
